The values that follow come from patent publication US20190389850A1, “COMPOUNDS” (GLAXOSMITHKLINE INTELLECTUAL PROPERTY DEVELOPMENT LIMITED, priority 2017, published 2019).

Where “and” joins values, the source holds several entries; their conditions need not be identical. Equal entries are not always repeated.

T2 sequence (Q5S007 whole entry): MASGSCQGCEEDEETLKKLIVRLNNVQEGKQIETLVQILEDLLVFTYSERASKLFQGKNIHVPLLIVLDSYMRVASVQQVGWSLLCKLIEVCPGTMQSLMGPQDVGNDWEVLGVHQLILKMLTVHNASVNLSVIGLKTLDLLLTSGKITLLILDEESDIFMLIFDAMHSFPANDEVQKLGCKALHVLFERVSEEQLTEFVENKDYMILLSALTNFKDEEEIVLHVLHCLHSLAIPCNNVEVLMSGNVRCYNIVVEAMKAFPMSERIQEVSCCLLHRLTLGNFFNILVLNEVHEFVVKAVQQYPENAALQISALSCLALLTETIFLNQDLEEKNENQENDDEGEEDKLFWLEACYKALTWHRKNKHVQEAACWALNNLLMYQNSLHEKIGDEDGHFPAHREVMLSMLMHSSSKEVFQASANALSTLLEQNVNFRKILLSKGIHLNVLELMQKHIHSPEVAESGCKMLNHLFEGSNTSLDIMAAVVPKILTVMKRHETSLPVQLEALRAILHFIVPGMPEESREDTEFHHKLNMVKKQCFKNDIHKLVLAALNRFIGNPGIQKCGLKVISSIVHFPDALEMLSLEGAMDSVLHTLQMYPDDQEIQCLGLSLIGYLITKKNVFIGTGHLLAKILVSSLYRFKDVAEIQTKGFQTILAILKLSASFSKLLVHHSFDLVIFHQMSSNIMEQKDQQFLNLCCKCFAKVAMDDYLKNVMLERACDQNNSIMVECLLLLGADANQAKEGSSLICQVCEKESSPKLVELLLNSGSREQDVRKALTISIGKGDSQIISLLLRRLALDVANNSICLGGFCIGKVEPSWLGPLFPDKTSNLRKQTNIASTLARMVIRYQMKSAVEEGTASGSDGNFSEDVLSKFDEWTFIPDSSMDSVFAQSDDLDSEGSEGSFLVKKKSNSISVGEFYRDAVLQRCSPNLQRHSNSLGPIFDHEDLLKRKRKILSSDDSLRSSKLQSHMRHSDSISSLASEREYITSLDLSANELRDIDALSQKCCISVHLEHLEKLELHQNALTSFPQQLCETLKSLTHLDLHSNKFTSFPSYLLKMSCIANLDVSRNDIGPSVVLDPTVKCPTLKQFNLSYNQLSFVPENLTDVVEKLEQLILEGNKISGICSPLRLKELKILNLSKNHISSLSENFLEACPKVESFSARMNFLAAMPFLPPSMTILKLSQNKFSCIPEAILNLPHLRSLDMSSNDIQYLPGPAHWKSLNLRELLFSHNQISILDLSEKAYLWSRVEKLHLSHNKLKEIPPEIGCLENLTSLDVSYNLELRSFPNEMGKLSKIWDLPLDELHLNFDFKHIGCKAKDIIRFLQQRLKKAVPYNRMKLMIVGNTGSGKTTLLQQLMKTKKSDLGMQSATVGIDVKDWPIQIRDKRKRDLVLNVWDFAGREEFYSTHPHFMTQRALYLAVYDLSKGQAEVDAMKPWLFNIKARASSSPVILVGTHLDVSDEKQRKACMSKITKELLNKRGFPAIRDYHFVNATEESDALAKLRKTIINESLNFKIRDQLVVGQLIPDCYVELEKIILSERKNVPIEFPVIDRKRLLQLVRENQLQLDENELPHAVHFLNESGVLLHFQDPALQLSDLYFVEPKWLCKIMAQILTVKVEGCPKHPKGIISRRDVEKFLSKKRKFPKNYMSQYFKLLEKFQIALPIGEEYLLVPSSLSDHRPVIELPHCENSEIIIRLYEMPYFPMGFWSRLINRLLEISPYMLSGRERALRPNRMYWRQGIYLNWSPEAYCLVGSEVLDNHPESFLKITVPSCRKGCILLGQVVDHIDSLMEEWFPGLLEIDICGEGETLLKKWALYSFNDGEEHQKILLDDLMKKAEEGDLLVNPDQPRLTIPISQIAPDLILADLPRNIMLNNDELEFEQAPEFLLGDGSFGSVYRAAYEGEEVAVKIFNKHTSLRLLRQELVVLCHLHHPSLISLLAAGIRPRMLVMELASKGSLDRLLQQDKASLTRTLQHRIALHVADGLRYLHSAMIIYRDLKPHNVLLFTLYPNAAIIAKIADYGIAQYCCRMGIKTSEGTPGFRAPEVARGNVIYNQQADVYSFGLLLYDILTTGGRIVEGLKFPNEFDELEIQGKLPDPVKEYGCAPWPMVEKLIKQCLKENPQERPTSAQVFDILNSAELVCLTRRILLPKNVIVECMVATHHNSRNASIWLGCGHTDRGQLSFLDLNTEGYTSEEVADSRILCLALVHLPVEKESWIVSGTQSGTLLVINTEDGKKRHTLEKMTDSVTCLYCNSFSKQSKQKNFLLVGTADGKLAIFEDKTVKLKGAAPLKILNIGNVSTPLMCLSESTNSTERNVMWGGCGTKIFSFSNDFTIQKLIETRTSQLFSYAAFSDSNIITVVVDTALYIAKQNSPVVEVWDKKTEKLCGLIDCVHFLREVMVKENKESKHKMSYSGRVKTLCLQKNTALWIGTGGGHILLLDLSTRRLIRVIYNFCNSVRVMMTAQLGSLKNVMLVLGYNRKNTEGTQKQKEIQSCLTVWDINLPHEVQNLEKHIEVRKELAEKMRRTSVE

The target of the first assay is T1, Full length G2019 human LRRK2 (Homo sapiens, UniProt Q5S007).
T1 construct: purified recombinant Full length Flag-LRRK2; made in house; host or cells: HEK293 6E cells transduced with BacMam virus (virus made in Sf9)
T1 sequence (Q5S007 with tags, fused parts or gaps R50H): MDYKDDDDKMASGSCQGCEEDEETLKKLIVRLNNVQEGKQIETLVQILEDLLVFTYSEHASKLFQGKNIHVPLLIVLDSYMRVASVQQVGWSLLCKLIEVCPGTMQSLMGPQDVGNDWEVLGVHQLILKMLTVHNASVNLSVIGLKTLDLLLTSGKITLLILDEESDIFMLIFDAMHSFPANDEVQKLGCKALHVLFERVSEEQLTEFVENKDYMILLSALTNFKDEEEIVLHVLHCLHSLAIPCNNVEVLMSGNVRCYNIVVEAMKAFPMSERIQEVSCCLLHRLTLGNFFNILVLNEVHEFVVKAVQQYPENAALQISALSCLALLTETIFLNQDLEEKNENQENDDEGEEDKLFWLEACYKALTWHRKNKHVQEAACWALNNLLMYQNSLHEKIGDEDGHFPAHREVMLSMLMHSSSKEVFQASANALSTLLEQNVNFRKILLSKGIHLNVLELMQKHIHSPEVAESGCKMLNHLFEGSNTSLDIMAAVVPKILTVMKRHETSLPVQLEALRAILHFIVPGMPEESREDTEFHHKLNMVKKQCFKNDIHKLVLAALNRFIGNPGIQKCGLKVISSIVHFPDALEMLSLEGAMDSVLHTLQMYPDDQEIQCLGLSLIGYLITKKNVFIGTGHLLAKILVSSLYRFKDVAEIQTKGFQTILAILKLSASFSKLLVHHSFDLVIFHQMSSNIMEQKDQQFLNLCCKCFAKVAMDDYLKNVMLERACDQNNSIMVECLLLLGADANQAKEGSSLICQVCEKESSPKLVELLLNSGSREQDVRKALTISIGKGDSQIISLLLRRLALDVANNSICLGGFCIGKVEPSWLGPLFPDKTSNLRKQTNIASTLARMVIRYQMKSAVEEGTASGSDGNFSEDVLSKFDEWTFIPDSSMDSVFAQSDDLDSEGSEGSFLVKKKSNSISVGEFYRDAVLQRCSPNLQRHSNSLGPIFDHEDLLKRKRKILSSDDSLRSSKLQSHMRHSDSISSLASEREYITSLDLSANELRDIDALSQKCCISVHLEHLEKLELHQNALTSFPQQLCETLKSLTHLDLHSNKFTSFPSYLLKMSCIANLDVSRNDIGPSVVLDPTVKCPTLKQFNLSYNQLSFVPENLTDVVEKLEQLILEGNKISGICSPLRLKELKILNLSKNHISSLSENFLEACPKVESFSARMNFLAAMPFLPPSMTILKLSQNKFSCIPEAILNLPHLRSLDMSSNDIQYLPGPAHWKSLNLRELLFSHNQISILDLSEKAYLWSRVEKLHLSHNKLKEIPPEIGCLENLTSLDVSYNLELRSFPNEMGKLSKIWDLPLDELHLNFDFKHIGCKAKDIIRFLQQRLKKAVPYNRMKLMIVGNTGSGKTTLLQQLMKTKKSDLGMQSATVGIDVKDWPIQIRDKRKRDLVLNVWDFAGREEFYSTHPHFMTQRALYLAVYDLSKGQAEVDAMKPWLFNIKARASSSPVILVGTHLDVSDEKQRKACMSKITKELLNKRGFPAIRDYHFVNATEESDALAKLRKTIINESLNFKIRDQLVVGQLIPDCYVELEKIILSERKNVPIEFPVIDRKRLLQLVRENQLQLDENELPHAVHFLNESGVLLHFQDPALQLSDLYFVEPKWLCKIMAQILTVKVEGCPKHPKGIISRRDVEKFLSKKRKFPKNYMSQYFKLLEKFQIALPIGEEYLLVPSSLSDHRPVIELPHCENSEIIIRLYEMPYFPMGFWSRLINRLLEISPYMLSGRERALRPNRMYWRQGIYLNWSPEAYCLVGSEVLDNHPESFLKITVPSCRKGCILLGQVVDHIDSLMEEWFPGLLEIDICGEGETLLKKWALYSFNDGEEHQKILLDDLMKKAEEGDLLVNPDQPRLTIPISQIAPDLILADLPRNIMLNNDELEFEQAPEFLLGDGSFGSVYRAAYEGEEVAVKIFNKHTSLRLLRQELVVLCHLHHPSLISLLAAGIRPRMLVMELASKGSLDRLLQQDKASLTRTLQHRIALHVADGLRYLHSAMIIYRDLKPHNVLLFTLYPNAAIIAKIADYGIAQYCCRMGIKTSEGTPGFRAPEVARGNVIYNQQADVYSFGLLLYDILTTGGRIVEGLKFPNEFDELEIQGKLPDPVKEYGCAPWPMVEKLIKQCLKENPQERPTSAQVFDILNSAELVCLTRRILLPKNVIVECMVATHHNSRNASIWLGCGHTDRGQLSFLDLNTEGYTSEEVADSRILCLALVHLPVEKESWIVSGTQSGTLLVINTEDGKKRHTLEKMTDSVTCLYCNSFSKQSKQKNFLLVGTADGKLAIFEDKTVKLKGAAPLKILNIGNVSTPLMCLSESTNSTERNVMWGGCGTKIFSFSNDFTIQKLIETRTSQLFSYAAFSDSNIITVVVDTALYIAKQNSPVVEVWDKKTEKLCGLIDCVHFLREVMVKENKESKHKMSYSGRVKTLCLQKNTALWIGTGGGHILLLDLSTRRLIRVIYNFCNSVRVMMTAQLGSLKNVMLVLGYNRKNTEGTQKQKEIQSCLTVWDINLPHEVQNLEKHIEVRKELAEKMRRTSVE
Description: Full length G2019 human LRRK2 Inhibition Mass Spectrometry assay. It is filed as biochemical. The following applies: LRRKtide to phospho-LRRKtide conversion, RapidFire mass spectrometry; 25 nM LRRK2, 2 mM ATP; read-out: pIC50 in the full length G2019 human LRRK2 Inhibition Mass Spectrometry assay (converted). The method, then:
a. Full Length G2019 Human LRRK2 Inhibition Mass Spectrometry Assay
This assay for Leucine Rich Repeat Kinase 2 (LRRK2) inhibition is based on the direct measurement of the peptide ‘LRRKtide’ (LRRKtide: RLGRDKYKT*LRQIRQ and “*” refers to the site of phosphorylation.) and phosphorylated ‘LRRKtide’ using a high throughput RapidFire mass spectrometry assay. Inhibitors are compounds that reduce the conversion of LRRKtide to phospho-LRRKtide.
• 1) A 10 mM test compound was dissolved in 100% DMSO and serially diluted 1 in 4. 100 nL of this dilution series was then added to a 384 well, v bottom polypropylene plate, excluding columns 6 and 18. 100 nL of DMSO was added to columns 6 and 18 as controls wells. […] Test plates were then analysed on an Agilent RapidFire High Throughput solid phase extraction system coupled to AB Sciex API 4000 triple quadropole mass spectrometer with the following setting: RapidFire settings: • Sip Height=2 mm, Aspirate=500 ms, Load time=3000 ms, Elution time=3000 ms, Requilibration=500 ms. • Flow rates: pump 1=1.5 mL/min, pump 2 1.25 mL/min pump 3=0.8 mL/min Mass Spectrometer Settings: • LRRKtide Detection settings: Q1 mass 644.8 Da, Q3 mass 638.8, declustering potential 76 volts, collision energy 37 volts, CXP 34 volts. • Phospho-LRRKtide Detection settings: Q1 mass 671.4 Da, Q3 mass 638.8, Declustering potential 76 volts, Collision energy 37 volts, CXP 34 volts. • A C4 cartridge was used and running buffers were: A (aqueous) 0.1% formic acid in water B (organic) 0.1% formic acid, 80% acetonitrile, 20% water. • Collision gas: 12, Curtain gas: 25, Ion Source gas (1): 60, Ion Source gas (2): 60, Ion Spray Voltage: 5500, Temperature: 600, Interface Heater: ON. • Resolution Q1: low, Resolution Q3: low. • 6) Data was analysed using ActivityBase software (IDBS). A percent conversion from LRRKtide to Phospho-LRRKtide was calculated using the following formula: […]
Regarding `Cc1nc(N2CCOC(CCO)C2)cc(-n2ncc3cc(C)c(C4CCN(C5COC5)CC4)cc32)n1` (single isomer, unassigned) [Example B-7, 2-(4-(2-methyl-6-(5-methyl-6-(1-(oxetan-3-yl)piperidin-4-yl)-1H-indazol-1-yl)pyrimidin-4-yl)morpholin-2-yl)ethanol], the IC50 is at most 100 nM.

On to `Cc1nc(N2CCO[C@@H](CO)C2)cc(-n2ncc3cc(C)c(C4CCN(C5(C)COC5)CC4)cc32)n1` [Example A-1, (R)-(4-(2-Methyl-6-(5-methyl-6-(1-(3-methyloxetan-3-yl)piperidin-4-yl)-1H-indazol-1-yl)pyrimidin-4-yl)morpholin-2-yl)methanol], for which the IC50 was at most 100 nM.

For the compound `Cc1nc(N2CCO[C@H](CO)C2)cc(-n2ncc3cc(C)c(C4CCN(C5(C)COC5)CC4)cc32)n1` [Example A-2, (S)-(4-(2-Methyl-6-(5-methyl-6-(1-(3-methyloxetan-3-yl)piperidin-4-yl)-1H-indazol-1-yl)pyrimidin-4-yl)morpholin-2-yl)methanol], the IC50 was at most 100 nM.

A further assay concerns the target T2, recombinant full length LRRK2 protein (LRRK2 Ser935 phosphorylation) (Homo sapiens, UniProt Q5S007).
T2 construct: A BacMam virus expressing full length recombinant LRRK2 was purchased from Invitrogen; host or cells: SH-SY5Y human neuroblastoma cells transduced with BacMam LRRK2 virus
Description: Recombinant cellular LRRK2 AlphaScreen assay. Type of assay: cell-based. To be noted: SH-SY5Y cells over-expressing recombinant full length LRRK2, 60 minutes, read-out: pIC50 in the recombinant cellular LRRK2 AlphaScreen assay (converted). An excerpt: b. Recombinant Cellular LRRK2 AlphaScreen Assay
To determine the activity of compounds against LRRK2 kinase activity in cells, the observed LRRK2 kinase-dependent modulation of LRRK2 Ser 935 phosphorylation (Dzamko et al., 2010, Biochem. J. 430: 405-413) was utilized to develop a quantitative 384 well plate-based immunoassay of LRRK2 Ser935 phosphorylation in the human neuroblastoma cell line SH-SY5Y, engineered to over-express recombinant full length LRRK2 protein.
A BacMam virus expressing full length recombinant LRRK2 was purchased from Invitrogen and amplified by inoculation of SF-9 cells at MOI 0.3 for 4-5 days in Sf-900 III SFM medium supplemented with 3% fetal bovine serum. Infected cell cultures were then centrifuged at 2000 g for 20 minutes, viral supernatant titer determined by anti-gp64 plaque assay and stored at 4° C.
Affinity-purified anti-phospho LRRK2 Ser935 sheep polyclonal antibody (Dzamko et al., 2010, Biochem. J. 430: 405-413) was biotinylated by standard methods (PerkinElmer). Anti-LRRK2 rabbit polyclonal antibody was purchased from Novus Biologicals. AlphaScreen Protein A IgG Kit (including acceptor and donor beads) was purchased from Perkin Elmer.
SH-SY5Y cells were grown in DMEM/F12 medium with 10% dialysed fetal bovine serum and harvested by treatment with 0.5% trypsin-EDTA for 5 minutes at 37° C. followed by centrifugation at 1000 rpm for 4 minutes. The cell pellet was resuspended in Opti-MEM reduced serum media (Invitrogen) at 200,000 cells/ml and mixed with the BacMam LRRK2 virus at MOI=50. 50 μl cell solutions were then dispensed to each well of a 384-well plate and incubated at 37° C., 5% CO2 for 24 hours.
Serial dilutions of test compounds were prepared in Opti-MEM reduced serum media (Invitrogen) and 5.6 ul transferred from compound plate to cell assay plate to achieve a top final assay concentration of 10 uM. DMSO was used in certain wells as controls. Cells were incubated at 37° C., 5% CO2 for 60 minutes. The medium was then removed and cells lysed by addition of 20 ul cell lysis buffer (Cell Signaling Technology) and incubation at 4° C. for 20 minutes. 10 ul of antibody/acceptor bead mix [(1/1000 biotinylated-pS935 LRRK2 antibody, 1/1000 total-LRRK2 antibody, 1/100 Acceptor beads in AlphaScreen detection buffer (25 mM Hepes (pH 7.4), 0.5% Triton X-100, 1 mg/ml Dextran 500 and 0.1% BSA)] was then added to each well and plates incubated for 2 hours at ambient temperature in the dark. 10 μl of donor beads solution (1/33.3 donor beads in AlphaScreen detection buffer) was then added to each well. Following incubation for a further 2 hours at ambient temperature in the dark, plates were read on an EnVision™ plate reader at emission 520-620 nm with excitation 680 nm. Dose response curve data was based on sigmoidal dose-response model.
Background: Bead proximity is the source of the signal in Alpha formats.
Consider `Cc1nc(N2CC(C)OC(CO)C2)cc(-n2ncc3cc(C)c(C4CCN(C5COC5)CC4)cc32)n1` (single isomer, unassigned) [Example B-1, (6-Methyl-4-(2-methyl-6-(5-methyl-6-(1-(oxetan-3-yl)piperidin-4-yl)-1H-indazol-1-yl)pyrimidin-4-yl)morpholin-2-yl)methanol], for which the IC50 is 50.1 nM.

Take `Cc1nc(N2CC(C)OC(CO)C2)cc(-n2ncc3cc(C)c(C4CCN(C5COC5)CC4)cc32)n1` (single isomer, unassigned) [Example B-2, (6-Methyl-4-(2-methyl-6-(5-methyl-6-(1-(oxetan-3-yl)piperidin-4-yl)-1H-indazol-1-yl)pyrimidin-4-yl)morpholin-2-yl)methanol]: the IC50 is 79.4 nM.

Take `Cc1nc(N2CC(C)OC(CO)C2)cc(-n2ncc3cc(C)c(C4CCN(C5COC5)CC4)cc32)n1` (single isomer, unassigned) [Example B-3, (6-Methyl-4-(2-methyl-6-(5-methyl-6-(1-(oxetan-3-yl)piperidin-4-yl)-1H-indazol-1-yl)pyrimidin-4-yl)morpholin-2-yl)methanol]: the IC50 is 50.1 nM.

Turning to `Cc1nc(N2CC(C)OC(CO)C2)cc(-n2ncc3cc(C)c(C4CCN(C5COC5)CC4)cc32)n1` (single isomer, unassigned) [Example B-4, (6-Methyl-4-(2-methyl-6-(5-methyl-6-(1-(oxetan-3-yl)piperidin-4-yl)-1H-indazol-1-yl)pyrimidin-4-yl)morpholin-2-yl)methanol], the IC50 was 316 nM.

With `Cc1nc(N2CC(CO)OCC2C)cc(-n2ncc3cc(C)c(C4CCN(C5COC5)CC4)cc32)n1` (single isomer, unassigned) [Example B-6, (5-methyl-4-(2-methyl-6-(5-methyl-6-(1-(oxetan-3-yl)piperidin-4-yl)-1H-indazol-1-yl)pyrimidin-4-yl)morpholin-2-yl)methanol], the IC50 is 63.1 nM.

In the case of `Cc1nc(N2CCOC(CCO)C2)cc(-n2ncc3cc(C)c(C4CCN(C5COC5)CC4)cc32)n1` (single isomer, unassigned) [Example B-7, 2-(4-(2-methyl-6-(5-methyl-6-(1-(oxetan-3-yl)piperidin-4-yl)-1H-indazol-1-yl)pyrimidin-4-yl)morpholin-2-yl)ethanol], the IC50 is 79.4 nM.

As for `Cc1nc(N2CCOC(CCO)C2)cc(-n2ncc3cc(C)c(C4CCN(C5COC5)CC4)cc32)n1` (single isomer, unassigned) [Example B-8, 2-(4-(2-methyl-6-(5-methyl-6-(1-(oxetan-3-yl)piperidin-4-yl)-1H-indazol-1-yl)pyrimidin-4-yl)morpholin-2-yl)ethanol], the IC50 was 100 nM.

As to `Cc1nc(N2CCO[C@@H](CO)C2)cc(-n2ncc3cc(C)c(C4CCN(C5(C)COC5)CC4)cc32)n1` [Example A-1, (R)-(4-(2-Methyl-6-(5-methyl-6-(1-(3-methyloxetan-3-yl)piperidin-4-yl)-1H-indazol-1-yl)pyrimidin-4-yl)morpholin-2-yl)methanol], the IC50 is 200 nM.

As for `COc1nc(N2CCO[C@H](CO)C2)cc(-n2ncc3cc(C)c(C4CCN(C5(C)COC5)CC4)cc32)n1` [Example A-3, (S)-(4-(2-Methoxy-6-(5-methyl-6-(1-(3-methyloxetan-3-yl)piperidin-4-yl)-1H-indazol-1-yl)pyrimidin-4-yl)morpholin-2-yl)methanol], the IC50 was ≤ 31.6 nM and 12.6 nM.

Take `COc1nc(N2CCO[C@@H](CO)C2)cc(-n2ncc3cc(C)c(C4CCN(C5(C)COC5)CC4)cc32)n1` [Example A-4, (R)-(4-(2-Methoxy-6-(5-methyl-6-(l-(3-methyloxetan-3-yl)piperidin-4-yl)-1H-indazol-1-yl)pyrimidin-4-yl)morpholin-2-yl)methanol]: the IC50 is at most 31.6 nM.
